In patent publication US5204328A, “Peptides having atrial natriuretic factor activity” (Merck & Co., Inc., priority 1991, dated 1993):
Where a SMILES comes first, the peptide text is derived from it. Bridges are numbered along the chain shown (N, C = ends).

System: Rabbit Renal Artery
Test: Vasorelaxant relative potency, rabbit renal artery
Format: cell-based

CC[C@H](C)[C@@H]1NC(=O)[C@H](CCCNC(=N)N)NC(=O)[C@H](CC(=O)O)NC(=O)[C@H]([C@@H](C)CC)NC(=O)[C@H](CCCNC(=N)N)NC(=O)CNC(=O)CNC(=O)[C@H](Cc2ccccc2)NC(=O)[C@@H](N)CSSC[C@@H](C(=O)N[C@@H](CC(N)=O)C(=O)N[C@@H](CO)C(=O)N2CCC[C@H]2C(=O)N[C@@H](CCCNC(=N)N)C(N)=O)NC(=O)CNC(=O)[C@H](CC(C)C)NC(=O)CNC(=O)[C@H](CO)NC(=O)[C@H](CCC(N)=O)NC(=O)[C@H](C)NC(=O)CNC1=O [Structure 23] (H-CFGGRIDRIGAQSGLGCNSPR-NH2; disulfide 1-17)
Vasorelaxant Relative Potency Rabbit Renal Artery (Table 2, (7-27)-NH2 analogs, relative to I (7-27)-NH2 = 1): 3.86

CC[C@H](C)[C@@H]1NC(=O)[C@H](CCCNC(=N)N)NC(=O)[C@H](CC(=O)O)NC(=O)[C@H]([C@@H](C)CC)NC(=O)[C@H](CCCNC(=N)N)NC(=O)CNC(=O)CNC(=O)[C@H](Cc2ccccc2)NC(=O)[C@@H](N)CSSC[C@@H](C(=O)N[C@@H](CC(N)=O)C(=O)N[C@@H](CO)C(=O)N2CCC[C@H]2C(=O)N[C@@H](CCCNC(=N)N)C(N)=O)NC(=O)CNC(=O)[C@H](CC(C)C)NC(=O)CNC(=O)[C@H](CO)NC(=O)[C@H](CCC(N)=O)NC(=O)[C@H](C)NC(=O)CNC1=O [Structure 23, PROLINE-26 ANF (7-27) amide] (H-CFGGRIDRIGAQSGLGCNSPR-NH2; disulfide 1-17)
Vasorelaxant Relative Potency Rabbit Renal Artery (Table 1, (3-28) analogs, relative to sequence I = 1): 3.3
